Measured values as given in patent US8758816B2, “Compositions comprising azelastine and methods of use thereof” (priority 2004, dated 2014).
Structures can show the parent of a compound that is named as a salt.

Tested on: patients with seasonal allergic rhinitis (SAR)
Test: MP 428 two-week randomized double-blind study: Total Nasal Symptom Score (TNSS), change from baseline
Format: in vivo, human
Set-up: key to Change from Baseline in AM TNSS, Mean / Change from Baseline in AM TNSS, LS Mean / Change from Baseline in AM TNSS, Median: TNSS sum of 4 symptoms each 0-3 (0=none, 3=severe); change from baseline
Experimental: A two-week, randomized, double-blind study, which evaluated the effects of the co-administration of ASTELIN® (azelastine hydrochloride (HCl)) and FLONASE® (fluticasone propionate) compared to either product alone in patients with seasonal allergic rhinitis (SAR) was conducted during the 2006 Texas mountain cedar season. After a 5-day placebo lead-in period, 151 patients with moderate-to-severe allergic rhinitis symptoms were randomized to either: (1) (49 total patients) ASTELIN® (azelastine hydrochloride (HCl)) plus placebo saline nasal spray 2 sprays per nostril, 15 minutes apart, twice daily (AM & PM); (2) (50 total patients) FLONASE® (fluticasone propionate) plus placebo saline nasal spray, 2 sprays per nostril, 15 minutes apart, once daily (AM) and two sessions of placebo saline nasal spray, 2 sprays per nostril, 15 minutes apart (PM); or (3) (52 total patients) the co-administration of ASTELIN® (azelastine hydrochloride (HCl)) 2 sprays per nostril plus FLONASE® (fluticasone propionate) 2 sprays per nostril (AM), 15 minutes apart, and ASTELIN® (azelastine hydrochloride (HCl)) 2 sprays per nostril plus placebo saline nasal spray, 15 minutes apart, (PM) for a 2-week double-blind treatment period.
The primary efficacy variable was the change from baseline in the Total Nasal Symptom Score (TNSS), which comprised sneezing, itchy nose, runny nose, and nasal congestion (individual symptoms scores were assigned a value between 0 and 3, where 0=no symptoms and 3=severe symptoms). This study was not statistically designed to assess the differences between ASTELIN® and FLONASE®.

[1] = Day 9, Intent-to-Treat Population
[2] = Day 10, Intent-to-Treat Population
[3] = Day 10, Per-Protocol Population
[4] = Day 11, Intent-to-Treat Population
[5] = Day 11, Per-Protocol Population
[6] = Day 12, Intent-to-Treat Population

CN1CCCC(n2nc(Cc3ccc(Cl)cc3)c3ccccc3c2=O)CC1 (racemic) [Azelastine, (±)-1-(2H)-phthalazinone, 4-[(4-chlorophenyl)methyl]-2-(hexahydro-1-methyl-1H-azepin-4-yl)-, mono-hydrochloride]
Change from Baseline in AM TNSS, Median [1]: −2.00 | Change from Baseline in AM and PM Combined TNSS, Mean [1]: −5.38 | Change from Baseline in AM and PM Combined TNSS, Median [1]: −3.83 | Change from Baseline in PM TNSS, LS Mean [1]: −2.78 | Change from Baseline in PM TNSS, Mean [1]: −2.86 | Change from Baseline in PM TNSS, Median [1]: −2.33 | Percent Change from Baseline in AM TNSS, LS Mean [1]: −26.38% | Percent Change from Baseline in AM TNSS, Mean [1]: −26.20% | Percent Change from Baseline in AM TNSS, Median [1]: −22.22% | Percent Change from Baseline in AM and PM Combined TNSS, LS Mean [1]: −27.79% | Percent Change from Baseline in AM and PM Combined TNSS, Mean [1]: −27.72% | Percent Change from Baseline in AM and PM Combined TNSS, Median [1]: −19.35% | Percent Change from Baseline in PM TNSS, LS Mean [1]: −28.94% | Percent Change from Baseline in PM TNSS, Mean [1]: −28.91% | Percent Change from Baseline in PM TNSS, Median [1]: −25.00% | Change from Baseline in AM and PM Combined TNSS, LS Mean (Day 9, Intent-to-Treat Population, ANCOVA model): −5.36 | Change from Baseline in AM and PM Combined TNSS, LS Mean (Day 9, Per-Protocol Population): −5.32 | Change from Baseline in AM and PM Combined TNSS, Mean (Day 9, Per-Protocol Population): −5.38 | Change from Baseline in AM and PM Combined TNSS, Median (Day 9, Per-Protocol Population): −3.83 | Percent Change from Baseline in AM and PM Combined TNSS, LS Mean (Day 9, Per-Protocol Population): −27.68% | Percent Change from Baseline in AM and PM Combined TNSS, Mean (Day 9, Per-Protocol Population): −27.72% | Percent Change from Baseline in AM and PM Combined TNSS, Median (Day 9, Per-Protocol Population): −19.35% | Change from Baseline in AM TNSS, LS Mean [2]: −2.29 | Change from Baseline in AM TNSS, Mean [2]: −2.27 | Change from Baseline in AM TNSS, Median [2]: −2.17 | Change from Baseline in AM and PM Combined TNSS, Mean [2]: −5.36 | Change from Baseline in AM and PM Combined TNSS, Median [2]: −5.33 | Change from Baseline in PM TNSS, LS Mean [2]: −3.01 | Change from Baseline in PM TNSS, Mean [2]: −3.08 | Change from Baseline in PM TNSS, Median [2]: −3.00 | Percent Change from Baseline in AM TNSS, LS Mean [2]: −23.62% | Percent Change from Baseline in AM TNSS, Mean [2]: −23.81% | Percent Change from Baseline in AM TNSS, Median [2]: −23.64% | Percent Change from Baseline in AM and PM Combined TNSS, LS Mean [2]: −27.60% | Percent Change from Baseline in AM and PM Combined TNSS, Mean [2]: −27.81% | Percent Change from Baseline in AM and PM Combined TNSS, Median [2]: −28.93% | Percent Change from Baseline in PM TNSS, LS Mean [2]: −31.30% | Percent Change from Baseline in PM TNSS, Mean [2]: −31.29% | Percent Change from Baseline in PM TNSS, Median [2]: −33.33% | Change from Baseline in AM and PM Combined TNSS, LS Mean (Day 10, Intent-to-Treat Population, ANCOVA model): −5.29 | Change from Baseline in AM and PM Combined TNSS, LS Mean [3]: −5.25 | Change from Baseline in AM and PM Combined TNSS, Mean [3]: −5.36 | Change from Baseline in AM and PM Combined TNSS, Median [3]: −5.33 | Percent Change from Baseline in AM and PM Combined TNSS, LS Mean [3]: −27.49% | Percent Change from Baseline in AM and PM Combined TNSS, Mean [3]: −27.81% | Percent Change from Baseline in AM and PM Combined TNSS, Median [3]: −28.93% | Change from Baseline in AM TNSS, LS Mean [4]: −2.53 | Change from Baseline in AM TNSS, Mean [4]: −2.48 | Change from Baseline in AM TNSS, Median [4]: −2.00 | Change from Baseline in AM and PM Combined TNSS, Mean [4]: −5.77 | Change from Baseline in AM and PM Combined TNSS, Median [4]: −4.70 | Change from Baseline in PM TNSS, LS Mean [4]: −3.20 | Change from Baseline in PM TNSS, Mean [4]: −3.29 | Change from Baseline in PM TNSS, Median [4]: −3.33 | Percent Change from Baseline in AM TNSS, LS Mean [4]: −25.86% | Percent Change from Baseline in AM TNSS, Mean [4]: −25.65% | Percent Change from Baseline in AM TNSS, Median [4]: −19.40% | Percent Change from Baseline in AM and PM Combined TNSS, LS Mean [4]: −29.24% | Percent Change from Baseline in AM and PM Combined TNSS, Mean [4]: −29.42% | Percent Change from Baseline in AM and PM Combined TNSS, Median [4]: −26.11% | Percent Change from Baseline in PM TNSS, LS Mean [4]: −32.80% | Percent Change from Baseline in PM TNSS, Mean [4]: −32.77% | Percent Change from Baseline in PM TNSS, Median [4]: −33.96% | Change from Baseline in AM and PM Combined TNSS, LS Mean (Day 11, Intent-to-Treat Population, ANCOVA model): −5.70 | Change from Baseline in AM and PM Combined TNSS, LS Mean [5]: −5.64 | Change from Baseline in AM and PM Combined TNSS, Mean [5]: −5.77 | Change from Baseline in AM and PM Combined TNSS, Median [5]: −4.70 | Percent Change from Baseline in AM and PM Combined TNSS, LS Mean [5]: −29.05% | Percent Change from Baseline in AM and PM Combined TNSS, Mean [5]: −29.42% | Percent Change from Baseline in AM and PM Combined TNSS, Median [5]: −26.11% | Change from Baseline in AM TNSS, LS Mean [6]: −2.60 | Change from Baseline in AM TNSS, Mean [6]: −2.58 | Change from Baseline in AM TNSS, Median [6]: −2.50 | Change from Baseline in AM and PM Combined TNSS, Mean [6]: −5.54 | Change from Baseline in AM and PM Combined TNSS, Median [6]: −5.00 | Change from Baseline in PM TNSS, LS Mean [6]: −2.85 | Change from Baseline in PM TNSS, Mean [6]: −2.96 | Change from Baseline in PM TNSS, Median [6]: −2.40 | Percent Change from Baseline in AM TNSS, LS Mean [6]: −26.61% | Percent Change from Baseline in AM TNSS, Mean [6]: −26.72% | Percent Change from Baseline in AM TNSS, Median [6]: −26.32% | Percent Change from Baseline in AM and PM Combined TNSS, LS Mean [6]: −27.99% | Percent Change from Baseline in AM and PM Combined TNSS, Mean [6]: −28.25% | Percent Change from Baseline in AM and PM Combined TNSS, Median [6]: −25.86% | Percent Change from Baseline in PM TNSS, LS Mean [6]: −29.18% | Percent Change from Baseline in PM TNSS, Mean [6]: −29.44%
